The values below come from patent US12522602B2, “Derivatives having 2,3-dihydro-1H-indene or 2,3-dihydrobenzofuran moiety or pharmaceutically acceptable salt thereof and pharmaceutical compositions comprising the same” (YUHAN CORPORATION, priority 2019, dated 2026).

In the test the test system is GM1 production in Jurkat cells. The test can be described thus: cells. The following applies: Homo sapiens, Jurkat, 72 h. Format: cell-based.

One may read the IC50 as the concentration that inhibits the measured activity by half. Read a low IC50 as greater potency.

The structures appear in SMILES notation.

For the compound `CCOc1ccc(-c2cc3c(cc2OC)C(NC(=O)O[C@@H]2CN4CCC2CC4)C(C)(C)C3)cc1F` (stereo partly drawn) [Example 347, (S)-quinuclidin-3-yl (5-(4-ethoxy-3-fluorophenyl)-6-methoxy-2,2-dimethyl-2,3-dihydro-1H-inden-1-yl)carbamate], the IC50 was determined as 46.8 nM. This lies in the double-digit nanomolar range. With `COc1cc2c(cc1-c1cc(C)c(OC(C)C)c(C)c1)CC(C)(C)C2NC(=O)O[C@@H]1CN2CCC1CC2` (stereo partly drawn) [Example 348, (S)-quinuclidin-3-yl (5-(4-isopropoxy-3,5-dimethylphenyl)-6-methoxy-2,2-dimethyl-2,3-dihydro-1H-inden-1-yl)carbamate], half-maximal inhibition (IC50) required 44.1 nM. `CCc1ccc(-c2cc3c(cc2F)C(NC(=O)O[C@@H]2CN4CCC2CC4)C(C)(C)C3)cc1` (stereo partly drawn) [Example 349, (S)-quinuclidin-3-yl (5-(4-ethylphenyl)-6-fluoro-2,2-dimethyl-2,3-dihydro-1H-inden-1-yl)carbamate] yielded an IC50 of 10.3 nM. On to `CCCc1ccc(-c2cc3c(cc2F)C(NC(=O)O[C@@H]2CN4CCC2CC4)C(C)(C)C3)cc1` (stereo partly drawn) [Example 350, (S)-quinuclidin-3-yl (6-fluoro-2,2-dimethyl-5-(4-propylphenyl)-2,3-dihydro-1H-inden-1-yl)carbamate], for which the IC50 stood at 4.5 nM. This IC50 is about 2.3-fold lower than that of the compound before.

With `CC(C)c1ccc(-c2cc3c(cc2F)C(NC(=O)O[C@@H]2CN4CCC2CC4)C(C)(C)C3)cc1` (stereo partly drawn) [Example 351, (S)-quinuclidin-3-yl (6-fluoro-5-(4-isopropylphenyl)-2,2-dimethyl-2,3-dihydro-1H-inden-1-yl)carbamate], the IC50 was 7.4 nM.

`CC(C)Cc1ccc(-c2cc3c(cc2F)C(NC(=O)O[C@@H]2CN4CCC2CC4)C(C)(C)C3)cc1` (stereo partly drawn) [Example 352, (S)-quinuclidin-3-yl (6-fluoro-5-(4-isobutylphenyl)-2,2-dimethyl-2,3-dihydro-1H-inden-1-yl)carbamate] returned an IC50 of 5.7 nM. The IC50 values of the last two compounds are within 1.5-fold of each other. `CC(C)(C)c1ccc(-c2cc3c(cc2F)C(NC(=O)O[C@@H]2CN4CCC2CC4)C(C)(C)C3)cc1` (stereo partly drawn) [Example 353, (S)-quinuclidin-3-yl (5-(4-(tert-butyl)phenyl)-6-fluoro-2,2-dimethyl-2,3-dihydro-1H-inden-1-yl)carbamate] gave an IC50 of 12.7 nM. `CC1(C)Cc2cc(-c3ccc(C4CC4)cc3)c(F)cc2C1NC(=O)O[C@@H]1CN2CCC1CC2` (stereo partly drawn) [Example 354, (S)-quinuclidin-3-yl (5-(4-cyclopropylphenyl)-6-fluoro-2,2-dimethyl-2,3-dihydro-1H-inden-1-yl)carbamate] had an IC50 of 5.9 nM. On to `COc1ccc(-c2cc3c(cc2F)C(NC(=O)O[C@@H]2CN4CCC2CC4)C(C)(C)C3)cc1` (stereo partly drawn) [Example 355, (S)-quinuclidin-3-yl (6-fluoro-5-(4-methoxyphenyl)-2,2-dimethyl-2,3-dihydro-1H-inden-1-yl)carbamate], for which the IC50 was determined as 62.8 nM.

`CCOc1ccc(-c2cc3c(cc2F)C(NC(=O)O[C@@H]2CN4CCC2CC4)C(C)(C)C3)cc1` (stereo partly drawn) [Example 356, (S)-quinuclidin-3-yl (5-(4-ethoxyphenyl)-6-fluoro-2,2-dimethyl-2,3-dihydro-1H-inden-1-yl)carbamate]: the IC50 came out at 21.6 nM. Against the preceding compound, the IC50 is about 2.9-fold lower. Turning to `CCCOc1ccc(-c2cc3c(cc2F)C(NC(=O)O[C@@H]2CN4CCC2CC4)C(C)(C)C3)cc1` (stereo partly drawn) [Example 357, (S)-quinuclidin-3-yl (6-fluoro-2,2-dimethyl-5-(4-propoxyphenyl)-2,3-dihydro-1H-inden-1-yl)carbamate], the IC50 was 5.3 nM. Compared with the last compound, the IC50 is about 4.1-fold lower. `CC(C)Oc1ccc(-c2cc3c(cc2F)C(NC(=O)O[C@@H]2CN4CCC2CC4)C(C)(C)C3)cc1` (stereo partly drawn) [Example 358, (S)-quinuclidin-3-yl (6-fluoro-5-(4-isopropoxyphenyl)-2,2-dimethyl-2,3-dihydro-1H-inden-1-yl)carbamate] gave a concentration for half-maximal inhibition (IC50) of 7.7 nM. For `CC(C)Oc1ccc(-c2cc3c(cc2F)C(NC(=O)O[C@@H]2CN4CCC2CC4)C(C)(C)C3)cc1Cl` (stereo partly drawn) [Example 359, (S)-quinuclidin-3-yl (5-(3-chloro-4-isopropoxyphenyl)-6-fluoro-2,2-dimethyl-2,3-dihydro-1H-inden-1-yl)carbamate] the value was 33.1 nM; for `COc1ccc(-c2cc3c(cc2F)C(NC(=O)O[C@@H]2CN4CCC2CC4)C(C)(C)C3)c(F)c1` (stereo partly drawn) [Example 360, (S)-quinuclidin-3-yl (6-fluoro-5-(2-fluoro-4-methoxyphenyl)-2,2-dimethyl-2,3-dihydro-1H-inden-1-yl)carbamate], 39 nM. `CCCCOc1ccc(-c2cc3c(cc2F)C(NC(=O)O[C@@H]2CN4CCC2CC4)C(C)(C)C3)cc1` (stereo partly drawn) [Example 361, (S)-quinuclidin-3-yl (5-(4-butoxyphenyl)-6-fluoro-2,2-dimethyl-2,3-dihydro-1H-inden-1-yl)carbamate]: the IC50 was determined as 2.1 nM.

`CC(C)COc1ccc(-c2cc3c(cc2F)C(NC(=O)O[C@@H]2CN4CCC2CC4)C(C)(C)C3)cc1` (stereo partly drawn) [Example 362, (S)-quinuclidin-3-yl (6-fluoro-5-(4-isobutoxyphenyl)-2,2-dimethyl-2,3-dihydro-1H-inden-1-yl)carbamate] returned an IC50 of 2.5 nM. Compound `CC1(C)Cc2cc(-c3ccc(OCC4CC4)nc3)c(F)cc2C1NC(=O)O[C@@H]1CN2CCC1CC2` (stereo partly drawn) [Example 363, (S)-quinuclidin-3-yl (5-(6-(cyclopropylmethoxy)pyridin-3-yl)-6-fluoro-2,2-dimethyl-2,3-dihydro-1H-inden-1-yl)carbamate] showed an IC50 of 8.7 nM. The result for `COc1ccc(Cl)cc1-c1cc2c(cc1F)C(NC(=O)O[C@@H]1CN3CCC1CC3)C(C)(C)C2` (stereo partly drawn) [Example 364, (S)-quinuclidin-3-yl (5-(5-chloro-2-methoxyphenyl)-6-fluoro-2,2-dimethyl-2,3-dihydro-1H-inden-1-yl)carbamate] reads 17.2 nM; that for `CCCCc1ccc(-c2cc3c(cc2F)C(NC(=O)O[C@@H]2CN4CCC2CC4)C(C)(C)C3)cc1` (stereo partly drawn) [Example 365, (S)-quinuclidin-3-yl (5-(4-butylphenyl)-6-fluoro-2,2-dimethyl-2,3-dihydro-1H-inden-1-yl)carbamate], 2.4 nM; that for `COc1c(C)cc(-c2cc3c(cc2F)C(NC(=O)O[C@@H]2CN4CCC2CC4)C(C)(C)C3)cc1C` (stereo partly drawn) [Example 366, (S)-quinuclidin-3-yl (6-fluoro-5-(4-methoxy-3,5-dimethylphenyl)-2,2-dimethyl-2,3-dihydro-1H-inden-1-yl)carbamate], 79.4 nM.

As for `CCOc1c(C)cc(-c2cc3c(cc2F)C(NC(=O)O[C@@H]2CN4CCC2CC4)C(C)(C)C3)cc1C` (stereo partly drawn) [Example 367, (S)-quinuclidin-3-yl (5-(4-ethoxy-3,5-dimethylphenyl)-6-fluoro-2,2-dimethyl-2,3-dihydro-1H-inden-1-yl)carbamate], 68.2 nM corresponded to half-maximal inhibition (IC50). The IC50 values of the last two compounds are within 1.5-fold of each other. Turning to `CCCCOc1c(C)cc(-c2cc3c(cc2F)C(NC(=O)O[C@@H]2CN4CCC2CC4)C(C)(C)C3)cc1C` (stereo partly drawn) [Example 368, (S)-quinuclidin-3-yl (5-(4-butoxy-3,5-dimethylphenyl)-6-fluoro-2,2-dimethyl-2,3-dihydro-1H-inden-1-yl)carbamate], the IC50 was 22.9 nM.

In turn, `COc1cc(-c2cc3c(cc2F)C(NC(=O)O[C@@H]2CN4CCC2CC4)C(C)(C)C3)ccn1` (stereo partly drawn) [Example 369, (S)-quinuclidin-3-yl (6-fluoro-5-(2-methoxypyridin-4-yl)-2,2-dimethyl-2,3-dihydro-1H-inden-1-yl)carbamate] came in with an IC50 of 172 nM. This IC50 lies about 7.5-fold higher than the previous one. The result for `CC1(C)Cc2cc(-c3cccc(F)c3)c(F)cc2C1NC(=O)O[C@@H]1CN2CCC1CC2` (stereo partly drawn) [Example 370, (S)-quinuclidin-3-yl (6-fluoro-5-(3-fluorophenyl)-2,2-dimethyl-2,3-dihydro-1H-inden-1-yl)carbamate] reads 39.3 nM. Compound `CCc1cccc(-c2cc3c(cc2F)C(NC(=O)O[C@@H]2CN4CCC2CC4)C(C)(C)C3)c1` (stereo partly drawn) [Example 371, (S)-quinuclidin-3-yl (5-(3-ethylphenyl)-6-fluoro-2,2-dimethyl-2,3-dihydro-1H-inden-1-yl)carbamate] showed an IC50 of 24.8 nM. For the compound `CC(C)Cc1cccc(-c2cc3c(cc2F)C(NC(=O)O[C@@H]2CN4CCC2CC4)C(C)(C)C3)c1` (stereo partly drawn) [Example 372, (S)-quinuclidin-3-yl (6-fluoro-5-(3-isobutylphenyl)-2,2-dimethyl-2,3-dihydro-1H-inden-1-yl)carbamate], it took 46.2 nM to reach half-maximal inhibition (IC50). On to `CC(C)c1cccc(-c2cc3c(cc2F)C(NC(=O)O[C@@H]2CN4CCC2CC4)C(C)(C)C3)c1` (stereo partly drawn) [Example 373, (S)-quinuclidin-3-yl (6-fluoro-5-(3-isopropylphenyl)-2,2-dimethyl-2,3-dihydro-1H-inden-1-yl)carbamate], for which half-maximal inhibition (IC50) required 31.2 nM. In the case of `CC(C)(C)c1cccc(-c2cc3c(cc2F)C(NC(=O)O[C@@H]2CN4CCC2CC4)C(C)(C)C3)c1` (stereo partly drawn) [Example 374, (S)-quinuclidin-3-yl (5-(3-(tert-butyl)phenyl)-6-fluoro-2,2-dimethyl-2,3-dihydro-1H-inden-1-yl)carbamate], half-maximal inhibition (IC50) was put at 26.5 nM.

For the compound `COc1cccc(-c2cc3c(cc2F)C(NC(=O)O[C@@H]2CN4CCC2CC4)C(C)(C)C3)c1` (stereo partly drawn) [Example 375, (S)-quinuclidin-3-yl (6-fluoro-5-(3-methoxyphenyl)-2,2-dimethyl-2,3-dihydro-1H-inden-1-yl)carbamate], 23 nM corresponded to half-maximal inhibition (IC50). The IC50 values of the last two compounds are within 1.5-fold of each other. `CCCOc1cccc(-c2cc3c(cc2F)C(NC(=O)O[C@@H]2CN4CCC2CC4)C(C)(C)C3)c1` (stereo partly drawn) [Example 377, (S)-quinuclidin-3-yl (6-fluoro-2,2-dimethyl-5-(3-propoxyphenyl)-2,3-dihydro-1H-inden-1-yl)carbamate] gave an IC50 of 35.5 nM. `CC(C)Oc1cccc(-c2cc3c(cc2F)C(NC(=O)O[C@@H]2CN4CCC2CC4)C(C)(C)C3)c1` (stereo partly drawn) [Example 378, (S)-quinuclidin-3-yl (6-fluoro-5-(3-isopropoxyphenyl)-2,2-dimethyl-2,3-dihydro-1H-inden-1-yl)carbamate] had an IC50 of 87.5 nM. In the case of `CCCCOc1cccc(-c2cc3c(cc2F)C(NC(=O)O[C@@H]2CN4CCC2CC4)C(C)(C)C3)c1` (stereo partly drawn) [Example 379, (S)-quinuclidin-3-yl (5-(3-butoxyphenyl)-6-fluoro-2,2-dimethyl-2,3-dihydro-1H-inden-1-yl)carbamate], the IC50 amounted to 15.8 nM.
